Results as given in patent US20070202078A1, “Method Of Treating Viral Infections” (priority 2003, published 2007).

Key:
[1] = tested on: hepatitis C
[2] = tested on: HCV; details: cited from earlier work

Compound | virologic response ([1]; Example A: lower doses of ribavirin (less than 400 mg/day or less than 6 mg/kg/day), slow-release, with 3 million IU Intron A once weekly) | therapeutic response versus conventional or systemic doses ([1]; Example B: higher doses of ribavirin (600 mg/day), slow-release, with 3 million IU Intron A once weekly) | side effects versus conventional or systemic doses ([1]; human, in vivo) | effect on HCV viral load or hepatic histology ([2]; given as monotherapy, orally) | response rate (measured by major fall in HCV levels) ([2]; administered parenterally for up to 6 months)
NC(=O)c1ncn([C@@H]2O[C@H](CO)[C@@H](O)[C@H]2O)n1 [Ribavirin, ribavirin] | sustained virologic response | more complete or faster therapeutic response | lower side effects | no effect | 
interferon alfa 2b |  |  |  |  | ~25%
